In ChEMBL document CHEMBL1177867, “Synthesis and antioxidant activity evaluation of a syringic hydrazones family” (Eur J Med Chem, 2010):
Calls of active or inactive are those of the source. The calls are words filed in the database; no cut-off is given here.

Experiments:
[1] = Inhibition against UV-induced LDL oxidation in cell-free system at 10 uM after 2 hrs by TBARS assay; design: scale not given: the % may be the effect or the level left
[2] = Inhibition of cell-mediated LDL oxidation in HMEC1 cells at 10 uM after 6 hrs by TBARS assay; design: scale not given: the % may be the effect or the level left
[3] = Inhibition against copper-induced LDL oxidation in cell-free system at 10 uM after 3 hrs by TBARS assay; design: scale not given: the % may be the effect or the level left
[4] = Cytotoxicity against HMEC1 cells after 6 hrs by MTT assay; format: cell-based; settings: human, hmec-1, 6 h
[5] = Antioxidant activity against superoxide radical generation in HMEC1 cells; format: functional, Homo sapiens, HMEC-1
[6] = Antioxidant activity assessed as trolox equivalents of ABTS radical scavenging activity by TEAC assay; format: functional
[7] = tested on: HMEC-1; assay: Cytoprotective activity against 4HNE-induced cytotoxicity in HMEC1 cells at 25 uM by MTT assay; format: functional, cell-based; settings: Homo sapiens
[8] = tested on: Radical scavenging activity; assay: Antioxidant activity assessed as DPPH radical scavenging activity after; format: functional

Compound: COc1cc(/C=N/Nc2ccc(F)cc2)cc(OC)c1O
- Activity [1]: 18%
- Activity [2]: 5%
- Activity [3]: 6%
- Activity [4]: 58%
- Activity [5]: 57%
- Activity [6]: 1.02

Compound: COc1cc(/C=N/NC(=N)N)cc(OC)c1O.Cl
- Activity [1]: 24%
- Activity [2]: 10%
- Activity [3]: 6%
- Activity [4]: 70%
- Activity [5]: 36%
- Activity [6]: 0.69

Compound: NNC(=O)c1ccncc1
- Activity [7]: inactive

Compound: COc1cc(/C=N/Nc2nncc3ccccc23)cc(OC)c1O.Cl
- Activity [1]: 18%
- Activity [2]: 4%
- Activity [3]: 5%
- Activity [4]: 66%
- Activity [5]: 30%
- Activity [6]: 0.75

Compound: COc1cc(/C=N/NC(=O)c2cc(C)n[nH]2)cc(OC)c1O
- Activity [1]: 17%
- Activity [2]: 3%
- Activity [3]: 4%
- Activity [4]: 69%
- Activity [5]: 50%
- Activity [6]: 1.15

Compound: COc1cc(/C=N/NC(=O)c2ccncc2)cc(OC)c1O
- Activity [1]: 18%
- Activity [2]: 7%
- Activity [3]: 85%
- IC50 [8]: 17 µM
- Activity [4]: 65%
- Activity [5]: 22%
- Activity [6]: 1.25

Compound: COc1cc(/C=N/Nc2nc3ccccc3s2)cc(OC)c1O
- Activity [1]: 17%
- Activity [2]: 3%
- Activity [3]: 2%
- Activity [4]: 55%
- Activity [5]: 56%
- Activity [6]: 0.89

Compound: COc1cc(C(=O)O)cc(OC)c1O
- Activity [7]: inactive

Compound: COc1cc(/C=N/NC(=O)c2cccnc2)cc(OC)c1O
- Activity [1]: 20%
- Activity [2]: 5%
- Activity [3]: 77%
- IC50 [8]: 18 µM
- Activity [4]: 60%
- Activity [5]: 44%
- Activity [6]: 1.25

Compound: Cc1c(C)c2c(c(C)c1O)CCC(C)(C(=O)O)O2 (centres undefined) [TROLOX]
- Activity [1]: 18%
- Activity [2]: 3%
- Activity [3]: 6%
- Activity [4]: 57%
- Activity [5]: 5%

Compound: COc1cc(/C=N/NC(=O)OCc2ccccc2)cc(OC)c1O
- Activity [1]: 18%
- Activity [2]: 3%
- Activity [3]: 6%
- Activity [4]: 69%
- Activity [5]: 50%
- Activity [6]: 1.11

Compound: COc1cc(/C=N/Nc2c(Cl)cc(C(F)(F)F)cc2Cl)cc(OC)c1O
- Activity [1]: 15%
- Activity [2]: 4%
- Activity [3]: 3%
- Activity [4]: 74%
- Activity [5]: 42%
- Activity [6]: 0.98

Compound: COc1cc(/C=N/Nc2ccccc2F)cc(OC)c1O
- Activity [1]: 16%
- Activity [2]: 13%
- Activity [3]: 4%
- Activity [4]: 79%
- Activity [5]: 33%
- Activity [6]: 0.78
